Data set [1] relates to process water microbial population (paper mill). As to the kind of experiment: Initial laboratory screening of paper mill process water treated with NaOCl, before the urea-stabilized chlorine program. Format: cell-based. As to conditions: 5 ppm Cl2. How it is done: (§1) The process water stream of a paper mill was treated using a urea-stabilized chlorine program.
(§2) Process water samples were challenged with untreated process water (1% v/v) after the 4-hours samples were plated. […] In Table 1, preservation from urea-stabilized chlorine was observed prior to the application of this program to the mill water system and development of the tolerant population.

For data set [2], the system named is microbial population tolerant to urea-stabilized chlorine. As to the kind of experiment: Repeat laboratory screening of process water after 10 months of urea-stabilized chlorine treatment. As to conditions: 5 ppm Cl2. The format is cell-based. The method, then: as §1, §2
In data set [3] the test system is Cl2-urea tolerant bacteria. As to the kind of experiment: Biocide screening against Cl2-urea tolerant bacteria (Table 4). The format is cell-based.
The test system of data set [4] is Cl2-urea tolerant bacteria. As to the kind of experiment: Laboratory screening using process water treated with urea-stabilized chlorine (Table 5). The format is cell-based. As to conditions: for control of Cl2-urea tolerant bacteria (in words): typical use rates, Table 5 screening.
For a further data set, the system named is urease. As to the kind of experiment: Chlorine residual (TRO) with and without urease enzyme. The settings on record: control without urease. The format is physicochemical.
Data set [5] relates to urease-producing microorganisms. Briefly: Antimicrobial screening of biocides for control of urease-producing microorganisms. The format is cell-based.
[6] abbreviates: 24-hour, challenged with untreated process water (1% v/v) after 4-hour plating.

From patent US10640402B2, “Use of oxidizing and non-oxidizing biocides for control of bacteria tolerant to stabilized-oxidant treatment” (Ecolab USA Inc., priority 2012, dated 2020) come the findings set out here.

As to `[Na+].[O-]Cl` [NaOCl, sodium hypochlorite], the “CFU/mL, Initial Screening, 1-hour” value in data set [1] (1-hour) is given as 3.4 × 10^5 CFU/mL. Also, in data set [1] (4-hour), the “CFU/mL, Initial Screening, 4-hour” value is 3.6 × 10^6 CFU/mL. Also, the “CFU/mL, Initial Screening, 24-hour” value in data set [1] (setting [6]) is given as 1.9 × 10^7 CFU/mL. The “CFU/mL, Repeat Screening, 1-hour” value in data set [2] (1-hour) is reported as 2.8 × 10^6 CFU/mL. In addition, in data set [2] (4-hour), the “CFU/mL, Repeat Screening, 4-hour” value is 6.0 × 10^6 CFU/mL. Further, the “CFU/mL, Repeat Screening, 24-hour” value in data set [2] (setting [6]) is listed as 3.6 × 10^7 CFU/mL. Moreover, the “CFU/mL, 24-hour” value in data set [3] (2.5 ppm as Cl2) is given as 5.1 × 10^5 CFU/mL; in data set [3] (10.0 ppm as Cl2), under 100 CFU/mL; in data set [4] (2.5 ppm as Cl2), 1.0 × 10^7 CFU/mL; in data set [4] (10.0 ppm as Cl2) it was 5.0 × 10^2 CFU/mL. The “CFU/mL, 1-hour” value is on record as 1.9 × 10^5 CFU/mL in data set [4] (2.5 ppm as Cl2) and 2.0 × 10^2 CFU/mL in data set [4] (10.0 ppm as Cl2). Also, the “CFU/mL, 4-hour” value in data set [4] (2.5 ppm as Cl2) was 2.0 × 10^6 CFU/mL; in data set [4] (10.0 ppm as Cl2), 2.0 × 10^2 CFU/mL. In addition, in data set [4], the “control of Cl2-urea tolerant bacteria (in words)” value is “also effective, but was required at higher concentrations”. Further, in the data set on urease (1-hour), the “TRO (as ppm Cl2), 1-hour” value came to 4.6 ppm Cl2. In addition, the “TRO (as ppm Cl2), 4-hour” value with urease (4-hour) is 4.5 ppm Cl2. For the same molecule, the “TRO (as ppm Cl2), 24-hour” value in the data set on urease (24-hour) was 4.1 ppm Cl2. In data set [5], the “control of urease-producing microorganisms (in words)” value is listed as “also effective”.

Turning to `O=CCCCC=O` [Glutaraldehyde, glutaraldehyde], the “CFU/mL, 24-hour” value is 100 CFU/mL in data set [3] (25 ppm product), under 100 CFU/mL in data set [3] (100 ppm product), 1.0 × 10^2 CFU/mL in data set [4] (25 ppm product) and 2 × 10^2 CFU/mL in data set [4] (100 ppm product). The “CFU/mL, 1-hour” value is given as 1.0 × 10^6 CFU/mL in data set [4] (25 ppm product) and 1.0 × 10^2 CFU/mL in data set [4] (100 ppm product). Also, the “CFU/mL, 4-hour” value in data set [4] (25 ppm product) is on record as 8.5 × 10^3 CFU/mL; in data set [4] (100 ppm product), 1.0 × 10^2 CFU/mL. In data set [4], the “control of Cl2-urea tolerant bacteria (in words)” value was “particularly effective”. The “control of urease-producing microorganisms (in words)” value in data set [5] was “effective control”.

`N#CC(Br)(Br)C(N)=O` [Dibromonitrilopropionamide, dibromonitrilopropionamide]: the “CFU/mL, 24-hour” value is recorded as 4.2 × 10^3 CFU/mL in data set [3] (25 ppm product), under 100 CFU/mL in data set [3] (100 ppm product), 3.0 × 10^4 CFU/mL in data set [4] (25 ppm product) and 3.0 × 10^2 CFU/mL in data set [4] (100 ppm product). The “CFU/mL, 1-hour” value in data set [4] (25 ppm product) was 1.4 × 10^5 CFU/mL; in data set [4] (100 ppm product), 6.0 × 10^2 CFU/mL. The entries for the “CFU/mL, 4-hour” value in data set [4] (25 ppm product) and in data set [4] (100 ppm product) were 7.0 × 10^4 CFU/mL and 2.0 × 10^2 CFU/mL, respectively. The “control of Cl2-urea tolerant bacteria (in words)” value in data set [4] is on record as “particularly effective”. For the same molecule, the “control of urease-producing microorganisms (in words)” value in data set [5] was “effective control”.

Consider `O=[N+]([O-])C(Br)(CO)CO` [Bronopol], for which the “CFU/mL, 24-hour” value in data set [3] (25 ppm product) is reported as 1.0 × 10^5 CFU/mL; in data set [3] (100 ppm product) it was 1.3 × 10^4 CFU/mL. For the same molecule, the “control of Cl2-urea tolerant bacteria (in words)” value in data set [4] is “not effective”.
